SMILES strings stand for the structures. Where only a bound is given, the exact number is not on record here.

By IC50 is commonly meant the midpoint of a concentration-inhibition curve.

For assay [1] the following is noted: background statement, literature reports; cited from earlier work.
A further assay concerns the target T1, NK-1 (Homo sapiens, UniProt P25103).
T1 construct: 30 ul/well of a 2×U373 membrane preparation
The experiment in a line: NK1 radioligand binding assay ([125I]Substance P, U373 membranes). Conditions: U373 cell membranes, 200 pM [125I]Substance P, 1 hour at room temperature. The essentials:
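Displacement of Kd-level [125I]Substance P (400 pM 2× stock) from U373 membranes in pH 7.5 Tris-Cl/MgCl2 buffer with protease inhibitors, 1 h, room temperature. Filtration onto GF/B, then scintillation counting. Percent inhibition, referenced to DMSO and L-733,060 wells, fitted by four-parameter equation to give IC50; triplicate plates.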

For a further assay, the target named is hSERT (Homo sapiens, UniProt P31645). The experiment in a line: SERT radioligand binding assay ([125I]RTI-55, HEK-hSERT membranes). Conditions: HEK-293 hSERT membranes, 260 pM [125I]RTI-55, 1 hour at room temperature; read-out: SERT IC50. The essentials:
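IC50 values derive from four-parameter fits of triplicate percent-inhibition curves, with DMSO as 0% and fluoxetine as 100%. Binding used [125I]RTI-55 at its Kd (520 pM 2× solution) and HEK-hSERT membranes (15 ug/ml 2×) in Tris/NaCl/KCl, pH 7.5, 1 hour, room temperature. Filter-bound radioactivity was counted.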

Sequence of hSERT (P31645 whole entry): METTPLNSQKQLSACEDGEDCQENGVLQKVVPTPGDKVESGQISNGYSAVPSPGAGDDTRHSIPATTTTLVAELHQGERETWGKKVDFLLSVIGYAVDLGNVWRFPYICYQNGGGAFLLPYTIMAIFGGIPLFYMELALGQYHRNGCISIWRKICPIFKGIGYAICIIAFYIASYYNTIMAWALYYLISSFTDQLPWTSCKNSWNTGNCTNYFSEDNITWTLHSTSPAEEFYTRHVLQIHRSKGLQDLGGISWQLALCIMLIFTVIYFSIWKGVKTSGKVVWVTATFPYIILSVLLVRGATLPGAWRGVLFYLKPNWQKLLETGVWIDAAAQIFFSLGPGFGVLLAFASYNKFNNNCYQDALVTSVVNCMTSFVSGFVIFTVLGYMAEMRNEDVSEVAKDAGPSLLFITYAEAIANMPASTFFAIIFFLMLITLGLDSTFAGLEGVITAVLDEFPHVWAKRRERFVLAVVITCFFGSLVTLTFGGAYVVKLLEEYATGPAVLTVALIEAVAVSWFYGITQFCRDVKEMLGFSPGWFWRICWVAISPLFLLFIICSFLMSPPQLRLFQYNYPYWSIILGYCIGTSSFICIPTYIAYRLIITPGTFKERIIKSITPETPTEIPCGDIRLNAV
T1 sequence (P25103 whole entry): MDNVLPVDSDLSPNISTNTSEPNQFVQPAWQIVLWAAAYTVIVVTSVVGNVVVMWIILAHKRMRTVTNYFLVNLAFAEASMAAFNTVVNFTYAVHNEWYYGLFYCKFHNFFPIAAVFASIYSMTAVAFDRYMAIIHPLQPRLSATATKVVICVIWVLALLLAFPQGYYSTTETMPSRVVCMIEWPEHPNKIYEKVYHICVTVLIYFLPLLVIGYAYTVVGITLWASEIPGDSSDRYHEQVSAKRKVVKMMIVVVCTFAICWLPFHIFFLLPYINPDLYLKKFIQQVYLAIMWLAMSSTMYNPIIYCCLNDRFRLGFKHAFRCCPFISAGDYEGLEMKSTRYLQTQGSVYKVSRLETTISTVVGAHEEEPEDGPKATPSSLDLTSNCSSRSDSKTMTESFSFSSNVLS

For `COc1ccc(OC(F)(F)F)cc1CN[C@H]1CCCN[C@H]1c1ccccc1` [CP-122,721], the antidepressant activity result in assay [1] is listed as “Robust antidepressant activity”.

In the case of `C[C@@H](OCC1(c2ccc(F)cc2)CCN(C)CC1)c1cc(Cl)cc2c(Cl)n[nH]c12` [Example 100, (R)-3,5-Dichloro-7-(1-((4-(4-fluorophenyl)-1-methylpiperidin-4-yl)methoxy)ethyl)-1H-indazole], the IC50 at NK-1 and on hSERT was 0.01 to 100 nM each time.

As to `C[C@@H](OCC1(c2ccc(F)cc2)CCNCC1)c1cc(Br)cc2c(Br)n[nH]c12` [Example 101, (R)-3,5-Dibromo-7-(1-((4-(4-fluorophenyl)piperidin-4-yl)methoxy)ethyl)-1H-indazole], the IC50 at NK-1 and on hSERT was 0.01 to 100 nM throughout.

For the molecule `C[C@@H](OCC1(c2ccc(F)cc2)CCN(C)CC1)c1cc(Br)cc2c(Br)n[nH]c12` [Example 102, (R)-3,5-Dibromo-7-(1-((4-(4-fluorophenyl)-1-methylpiperidin-4-yl)methoxy)ethyl)-1H-indazole], the IC50 on NK-1 and at hSERT was 0.01 to 100 nM in each case.

For the molecule `Cc1n[nH]c2c([C@@H](C)OCC3(c4ccc(F)cc4)CCN(C)CC3)cc(Cl)cc12` [Example 103, (R)-5-Chloro-7-(1-((4-(4-fluorophenyl)-1-methylpiperidin-4-yl)methoxy)ethyl)-3-methyl-1H-indazole], the IC50 at NK-1 and on hSERT was 0.01 to 100 nM each time.

On to `C[C@@H](OCC1(c2ccc(F)cc2)CCNCC1)c1cc(Cl)cc2cn(CC3CC3)nc12` [Example 104], for which the IC50 on NK-1 and on hSERT was 0.01 to 100 nM throughout.

As to `C[C@@H](OCC1(c2ccc(F)cc2)CCN(C)CC1)c1cc(Cl)cc2cn(CC3CC3)nc12` [Example 105, (R)-5-chloro-2-(cyclopropylmethyl)-7-(1-((4-(4-fluorophenyl)-1methylpiperidin-4-yl)methoxy)ethyl)-2H-indazole], the half-inhibitory concentration (IC50) at NK-1 and on hSERT was 0.01 to 100 nM in each case.

Regarding `C[C@@H](OCC1(c2ccc(F)cc2)CCN(C)CC1)c1cc(Cl)cc2cnn(CC3CC3)c12` [Example 106, (R)-5-chloro-1-(cyclopropylmethyl)-7-(1-((4-(4-fluorophenyl)-1methylpiperidin-4-yl)methoxy)ethyl)-1H-indazole], the IC50 at NK-1 and on hSERT was 0.01 to 100 nM in each case.

Consider `C[C@@H](OCC1(c2ccc(F)cc2)CCN(C)CC1)c1cc(Cl)cc2cn(CC#N)nc12` [Example 107, (R)-2-(5-chloro-7-(1-((4-(4-fluorophenyl)-1-methylpiperidine-4-yl)methoxy)ethyl)-2H-indazole-2-yl)acetonitrile], for which the IC50 on NK-1 and at hSERT was 0.01 to 100 nM each time.

Regarding `C[C@@H](OCC1(c2ccc(F)cc2)CCN(C)CC1)c1cc(Cl)cc2cnn(CC#N)c12` [Example 108], the IC50 at NK-1 and on hSERT was 0.01 to 100 nM in each case.

Take `CN1CCC(CO[C@H](CF)c2cc(Cl)cc3c(Cl)n[nH]c23)(c2ccc(F)cc2)CC1` [Example 109, (S)-3,5-dichloro-7-(2-fluoro-1-((4-(4-fluorophenyl)-1-methylpiperidine-4-yl)methoxy)ethyl)-1H-indazole]: the IC50 on NK-1 and on hSERT was 0.01 to 100 nM throughout.

Regarding `CN1CCC(COC(CC#N)c2cc(Cl)cc3cn[nH]c23)(c2ccc(F)cc2)CC1` (stereo not shown) [Example 110, 3-(5-chloro-1H-indazol-7-yl)-3-((4-(4-fluorophenyl)-1-methylpiperidine-4-yl)methoxy)propanenitrile], the IC50 at NK-1 and at hSERT was 0.01 to 100 nM each time.

On to `CN(C)CC(OCC1(c2ccc(F)cc2)CCNCC1)c1cc(Cl)cc2cn[nH]c12` (stereo not shown) [Example 111, 2-(5-chloro-1H-indazol-7-yl)-2-((4-(4-fluorophenyl)piperidine-4-yl)methoxy)-N,N-dimethylethanamine], for which the half-inhibitory concentration (IC50) on NK-1 was greater than 300 nM; at hSERT, 0.01 to 100 nM.

Turning to `CN(C)CC(OCC1(c2ccc(F)cc2)CCN(C)CC1)c1cc(Cl)cc2cn[nH]c12` (stereo not shown) [Example 112, 2-(5-chloro-1H-indazol-7-yl)-2-((4-(4-fluorophenyl)-1-methylpiperidine-4-yl)methoxy)-N,N-dimethylethanamine], the 50% inhibitory concentration (IC50) is greater than 300 nM at NK-1 and 100 to 300 nM on hSERT.

In the case of `CN1CCC(COC(c2cc(Cl)cc3cn[nH]c23)C(F)F)(c2ccc(F)cc2)CC1` (stereo not shown) [Example 113, 5-chloro-7(2,2-difluoro-1-((4-(4-fluorophenyl)-1-methylpiperidin-4-yl)methoxy)ethyl)-1H-indazole], the IC50 on NK-1 and at hSERT was 0.01 to 100 nM each time.

With `CCC(OCC1(c2ccc(F)cc2)CCNCC1)c1cc(Cl)cc2cn[nH]c12` (stereo not shown) [Example 114, 5-chloro-7-(1-((4-(4-fluorophenyl)piperidin-4-yl)methoxy)propyl)-1H-indazole], the IC50 on NK-1 and at hSERT was 0.01 to 100 nM throughout.

For the molecule `CCC(OCC1(c2ccc(F)cc2)CCN(C)CC1)c1cc(Cl)cc2cn[nH]c12` (stereo not shown) [Example 115, 5-chloro-7-(1-((4-(4-fluorophenyl)-1-methylpiperidin-4-yl)methoxy)propyl)-1H-indazole], the IC50 at NK-1 and at hSERT was 0.01 to 100 nM in each case.

`C[C@@H](OCC1(c2ccc(F)cc2)CCN(C)CC1)c1cc(Cl)cc2c(Cl)n(CC(F)(F)F)nc12` [Example 116, (R)-3,5-dichloro-7-(1-((4-(4-fluorophenyl-1-methyl)piperidine-4-yl)methoxy)ethyl)-2-(2,2,2-trifluoroethyl)-2H-indazole]: the IC50 at NK-1 and on hSERT was 0.01 to 100 nM in each case.

Regarding `C[C@@H](OCC1(c2ccccc2)CCN(C)CC1)c1cc(Cl)cc2c(Br)n[nH]c12` [Example 118, (R)-3-bromo-5-chloro-7-(1-((1-methyl-4-phenylpiperidin-4yl)methoxy)ethyl)-1H-indazole], the IC50 on NK-1 and on hSERT was 0.01 to 100 nM each time.

For the molecule `C[C@@H](OCC1(c2ccccc2)CCNCC1)c1cc(Cl)cc2c(Cl)n[nH]c12` [Example 119, (R)-3,5-dichloro-7-(1-((4-phenylpiperidin-4yl)methoxy)ethyl)-1H-indazole], the IC50 on NK-1 and at hSERT was 0.01 to 100 nM each time.

For `C[C@@H](OCC1(c2ccccc2)CCN(C)CC1)c1cc(Cl)cc2c(Cl)n[nH]c12` [Example 120, (R)-3,5-dichloro-7-(1-((1-methyl-4-phenylpiperidin-4yl)methoxy)ethyl)-1H-indazole], the 50% inhibitory concentration (IC50) at NK-1 and on hSERT was 0.01 to 100 nM throughout.

On to `C[C@H](OCC1(c2ccc(F)cc2)CCNCC1)c1cc(Cl)cc2c(Cl)n[nH]c12` [Example 121, (S)-3,5-dichloro-7-(1-((4-(4-fluorophenyl)piperidin-4-yl)methoxy)ethyl)-1h-indazole], for which the results for the concentration for half-maximal inhibition (IC50) at NK-1 and on hSERT were greater than 300 nM and 0.01 to 100 nM, respectively.

As for `C[C@H](OCC1(c2ccc(F)cc2)CCN(C)CC1)c1cc(Cl)cc2c(Cl)n[nH]c12` [Example 122, (S)-3,5-dichloro-7-(1-((4-(4-fluorophenyl)-1-methylpiperidin-4-yl)methoxy)ethyl)-1h-indazole], the IC50 at NK-1 is greater than 300 nM; on hSERT, 0.01 to 100 nM.

`Cc1cn(C)c2c(C(C)OCC3(c4ccc(F)cc4)CCN(C)CC3)cc(C(F)(F)F)cc12` (stereo not shown) [Example 125, 7-(1-((4-(4-fluorophenyl)-1-methylpiperidin-4-yl)methoxy)ethyl)-1,3-dimethyl-5-(trifluoromethyl)-1H-indole]: the IC50 at NK-1 and at hSERT was 0.01 to 100 nM throughout.

`CN1CCC(COCc2cc(Br)cc3ncn(CC4CC4)c23)(c2ccccc2)CC1` [Example 132]: the IC50 at NK-1 and on hSERT was 0.01 to 100 nM each time.

Turning to `CCn1cnc2c([C@@H](C)OCC3(c4ccccc4)CCN(C)CC3)cc(C(F)(F)F)cc21` [Example 138, (R)-1-ethyl-4-(1-((1-methyl-4-phenylpiperidin-4-yl)methoxy)ethyl)-6-(trifluoromethyl)-1H-benzo[d]imidazole], the IC50 on NK-1 and at hSERT was 0.01 to 100 nM each time.

Consider `C[C@@H](O[C@H]1OCCN(Cc2n[nH]c(=O)[nH]2)[C@H]1c1ccc(F)cc1)c1cc(C(F)(F)F)cc(C(F)(F)F)c1` [MK-869], for which the antidepressant activity entry in assay [1] is “Robust antidepressant activity”.

The record behind these values is US8026257B2 (Bristol-Myers Squibb Company, priority 2007, dated 2011).
